What was measured:
[1] = target: T1, TRKB (Homo sapiens, UniProt Q16620); assay: In vitro kinase inhibitory activity assay, Experimental method 2 (ADP-Glo); type: biochemical; conditions: Experimental method 2; ATP 5.0 µM, substrate PolyE4Y1; read-out: Kinase half maximal inhibitory concentration IC50 TRKB
T1 construct: purchased Carna
Description: (§1) The kinase inhibitory activity assays of the compounds against ALK, ALK^L1196M, ALK^G1202R, ALK^G1202R/L1196M, ROS1, and TRKB were conducted at Wuhan Heyan Biotechnology Co., Ltd. or Hefei PreceDo Biotechnology Co., Ltd.
(§2) Experimental materials: ALK (G1202R/L1196M) Active and TRKB were purchased from Carna; IGF1 was purchased from GenScript; PolyE4Y1 was purchased from SIGMA; ADP-Glo™ Reagent was purchased from Promega; ATP was purchased from Promega; Kinase Detection Reagent was purchased from Promega; microplate reader ( PerkinElmer).
TRKB reaction concentration 4.47 nM, ATP concentration 5.0 µM, substrate PolyE4Y1 concentration 0.2 µg/µL. TRKB kinase buffer was 40 mM Tris-HCl (pH 7.5) + 20 mM magnesium chloride + 2.5 mM manganese chloride + 0.1mg/mL BSA+ 50 µM DTT.
(§3) ALK(G1202R/L1196M) and TRKB detection method: 2 µL of kinase and 1 µL of compound were added to a 384-well plate; 2 µL of substrate/ATP mixture was added and incubated at room temperature in the dark for 60 minutes; 5 µL of ADP-Glo™ reagent was added and incubated at room temperature for 40 minutes; 10 µL of kinase detection reagent was added and incubated at room temperature for 30 minutes; the plate was read on a microplate reader, and luminescence was recorded (integration time set to 0.5 seconds).
(§4) The IC50 value could then be derived by performing a curve fit using a four-parameter logistic model (obtained using the "log(inhibitor) vs. response -- Variable slope" mode in GraphPad Prism).

[2] = target: T2, ALK(G1202R/L1196M) (Homo sapiens, UniProt Q9UM73, G1202R/L1196M); assay: as above; type: biochemical; conditions: Experimental method 2; ATP 5.0 µM, substrate IGF1; read-out: Kinase half maximal inhibitory concentration IC50 ALK^G1202R/L1196M
T2 construct: purchased Carna
T2 sequence (Q9UM73 19-1620 L1196M/G1202R): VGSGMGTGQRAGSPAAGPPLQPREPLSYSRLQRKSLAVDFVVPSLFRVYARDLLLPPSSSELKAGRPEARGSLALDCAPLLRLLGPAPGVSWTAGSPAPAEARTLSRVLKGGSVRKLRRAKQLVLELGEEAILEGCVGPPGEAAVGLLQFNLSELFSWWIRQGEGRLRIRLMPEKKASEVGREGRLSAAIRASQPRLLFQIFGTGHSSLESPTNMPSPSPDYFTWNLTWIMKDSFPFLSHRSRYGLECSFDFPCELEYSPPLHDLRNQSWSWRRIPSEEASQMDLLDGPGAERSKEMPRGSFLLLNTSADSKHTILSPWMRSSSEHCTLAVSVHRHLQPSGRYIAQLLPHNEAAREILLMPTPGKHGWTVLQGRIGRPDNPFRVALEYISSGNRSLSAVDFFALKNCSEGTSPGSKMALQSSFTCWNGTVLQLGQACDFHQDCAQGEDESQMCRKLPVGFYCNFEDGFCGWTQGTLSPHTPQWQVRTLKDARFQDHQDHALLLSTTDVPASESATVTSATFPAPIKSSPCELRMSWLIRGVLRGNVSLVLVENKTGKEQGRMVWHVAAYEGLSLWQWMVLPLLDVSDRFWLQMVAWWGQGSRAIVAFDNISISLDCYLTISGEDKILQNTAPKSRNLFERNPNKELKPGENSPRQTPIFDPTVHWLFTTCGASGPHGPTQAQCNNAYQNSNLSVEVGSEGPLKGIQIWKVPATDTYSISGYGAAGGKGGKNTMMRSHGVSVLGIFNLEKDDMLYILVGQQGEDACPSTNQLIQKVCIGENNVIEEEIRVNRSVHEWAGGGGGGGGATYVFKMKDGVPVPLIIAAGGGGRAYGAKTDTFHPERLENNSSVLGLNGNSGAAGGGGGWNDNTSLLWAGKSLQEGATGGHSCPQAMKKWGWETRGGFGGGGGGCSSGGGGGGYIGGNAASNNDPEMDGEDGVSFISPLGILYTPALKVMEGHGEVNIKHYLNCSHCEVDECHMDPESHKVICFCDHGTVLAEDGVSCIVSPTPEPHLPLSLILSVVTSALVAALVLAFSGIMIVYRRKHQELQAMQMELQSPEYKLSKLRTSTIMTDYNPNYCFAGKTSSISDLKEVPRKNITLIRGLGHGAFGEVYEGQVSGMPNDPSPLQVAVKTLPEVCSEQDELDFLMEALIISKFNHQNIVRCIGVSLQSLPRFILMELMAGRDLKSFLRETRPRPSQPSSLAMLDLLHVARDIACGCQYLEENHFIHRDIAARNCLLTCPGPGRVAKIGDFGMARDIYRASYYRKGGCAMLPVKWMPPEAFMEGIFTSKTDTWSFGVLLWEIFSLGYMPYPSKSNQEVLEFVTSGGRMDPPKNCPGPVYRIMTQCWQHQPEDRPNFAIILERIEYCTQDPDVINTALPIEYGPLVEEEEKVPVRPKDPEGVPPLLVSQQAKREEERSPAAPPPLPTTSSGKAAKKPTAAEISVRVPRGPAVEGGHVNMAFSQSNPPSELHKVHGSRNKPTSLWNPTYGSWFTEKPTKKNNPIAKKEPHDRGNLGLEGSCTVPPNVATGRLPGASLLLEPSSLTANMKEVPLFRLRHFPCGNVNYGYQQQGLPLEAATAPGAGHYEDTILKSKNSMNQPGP
Description: as §1, §2
Reaction system: ALK(G1202R/L1196M) reaction concentration 8.63 nM, ATP concentration 5.0 µM, substrate IGF1 concentration 0.2 µg/µL. ALK(G1202R/L1196M) kinase buffer was 40 mM Tris-HCl (pH 7.5) + 20 mM magnesium chloride + 0.1 mg/mL BSA + 50 µM DTT.
as §3, §4

[3] = target: T2, ALK(G1202R/L1196M); assay: In vitro kinase inhibitory activity assay, Experimental method 1 (ADP-Glo); type: biochemical; conditions: final ATP 50 µM, read-out: Kinase half maximal inhibitory concentration IC50 ALK^G1202R/L1196M
Description: as §1
(§5) Experimental materials: ALK Active, ALK(L1196M) Active, ALK(G1202R) Active, and ALK(G1202R/L1196M) Active were purchased from Carna; SRC Substrate was purchased from SignalChem; IGF1R tide was purchased from SignalChem; ADP-Glo Kinase Assay was purchased from Promega; Kinase assay buffer III was purchased from SignalChem; and Nivo multimode plate reader (PerkinElmer).
(§6) Each concentration of the compounds was further diluted 20-fold using 1X kinase buffer to prepare compound working solutions containing 5% DMSO. 1 µL of each concentration gradient working solution was added to a microplate, with duplicate wells set for each concentration. 2 µL of ALK enzyme (15 ng per well) and 2 µL of a mixture of substrate and ATP (25 µM ATP, 0.5 µg/µL SRC Substrate) were added to the microplate. […] The reaction system was placed at 25°C for 1 hour. After the reaction, 5 µL of ADP-Glo reagent was added to each well and reacted at 25°C for another 40 minutes. After the reaction, 10 µL of kinase detection reagent was added to each well and reacted at 25°C for 30 minutes. Chemiluminescence was then measured using the PerkinElmer Nivo multimode plate reader with an integration time of 0.5 seconds.
ALK (G1202R/L1196M) kinase inhibition assay method: The preparation method for the working solution of the test compound was the same as for the ALK kinase. […] The subsequent steps were the same as for ALK kinase.
as §4

[4] = target: T1, TRKB; assay: as above; type: biochemical; conditions: read-out: Kinase half maximal inhibitory concentration IC50 TRKB
Description: as §1, §5, §6
TRKB kinase inhibition assay method: The preparation method for the working solution of the test compound was the same as for the ALK kinase. 2 µL of TRKB (0.5 ng per well) and 4 µL of a mixture of substrate and ATP (5 µM ATP, 0.5 µM SRC Substrate) were added to the microplate. […] The subsequent steps were the same as for ALK kinase.
as §4

[5] = test system: Ba/F3-TEL-TRKB; assay: Anti-proliferative activity test on Ba/F3 cell lines (CellTiter-Glo); type: cell-based; conditions: Mus musculus, BaF3; 72 hours; read-out: Half maximal inhibitory concentration IC50 for cells Ba/F3-TEL-TRKB
Description: (§7) • (1) Cell culture: The cell lines were cultured in an incubator at 37°C with 5% CO2. Regular passaging was performed, and cells in the logarithmic growth phase were selected for plating; • (2) Preparation of compound storage plate: The test compounds were prepared into a 10 mM solution with DMSO (Stock Con.); The compounds were then prepared into a 1 mM solution with DMSO (Work Con.); 1 µL of the stock solution was mixed with 9 µL of DMSO to prepare a 10 µL work solution. • (3) Preparation of 1000× compound storage plate (tube): The compounds were 3-fold serially diluted from […] to the lowest concentration, for a total of 8 concentrations; • (4) Preparation of 20× compound working solution: 98 µL of cell culture medium was added to a flat-bottomed 96-well transparent drug plate. From the 1000× compound storage plate, 2 µL of the compound was pipetted into the cell culture medium in the 96-well transparent drug plate. In the solvent control, 2 µL of DMSO was added. After the compound or DMSO was added, the mixture was homogenized using a pipette. • (5) Cells were stained with trypan blue and viable cells were counted to ensure a cell viability of 90% or more. The cell concentration was adjusted to an appropriate concentration; • (6) 95 µL of cell suspension (2000 cells/well) was added to each well of the compound assay cell plate, and cell-free culture medium containing 0.1% DMSO was added to the Min control wells; • (7) Administration in the compound assay cell plate: 5 µL of 20× compound working solution was added to the cell culture plate, 5 µL of DMSO-cell culture medium mixture was added to the Max control wells, and the final concentration of DMSO was 0.1%; • (8) The culture plate was then incubated in an incubator at 37°C with 5% CO2 for 72 hours; • (9) The following operations were conducted in accordance with the instructions of the Promega CellTiter-Glo Luminescent Cell Viability Assay Kit (Promega-G7573): CellTiter-Glo buffer was thawed and brought to room temperature; CellTiter-Glo substrate was brought to room temperature; CellTiter-Glo buffer was added to a bottle of CellTiter-Glo substrate to dissolve the substrate, thereby preparing CellTiter-Glo working solution; The mixture was slowly vortexed and shaken to be fully dissolved; The cell culture plate was removed and allowed to equilibrate to room temperature for 10 minutes; 50 µL (equal to half the volume of cell culture medium in each well) of CellTiter-Glo working solution was added to each well; The culture plate was shaken on an orbital shaker for 2 minutes to induce cell lysis; The plate was then left at room temperature for 10 minutes to stabilize the luminescent signal; The luminescent signal was detected using a SpectraMax Paradigm plate reader; Cell viability assay was conducted using CellTiter-Glo luminescence method.
(§8) Data analysis: The corresponding […] value (RLU) for each well was obtained from SpectraMax Paradigm readings. […] The inhibition rates corresponding to compounds at different concentrations were calculated in Excel, and the inhibition rate curves were plotted using GraphPad Prism software to calculate relevant parameters, including the maximum and minimum inhibition rates of the cells and the IC50 value.

[6] = test system: Ba/F3-EML4-ALK-G1202R/L1196M; assay: as above; type: cell-based; conditions: Ba/F3 EML4-ALK-G1202R-L1196M; 72 hours; read-out: Half maximal inhibitory concentration IC50 for cells Ba/F3-EML4-ALK-G1202R/L1196 M
Description: as §7, §8

[7] = Cell permeability test, MDCKII-MDR1 monolayer; type: in vitro ADME; conditions: dog, MDCK-MDR1, pH 7.4
Description: The permeability and efflux ratio of the test compounds were evaluated using the MDCKII-MDR1 monolayer cell test system to determine the potential of the compounds to cross the blood-brain barrier and to be effluxed by the P-gp transporter.
MDCKII-MDR1 cells (from the Netherlands Cancer Institute) were seeded into a 96-well cell plate (from Corning) at a cell density of 2.5 × 10^5 cells/mL and cultured for 7 days to form a confluent monolayer.
The apparent permeability coefficient (Papp, cm/s) was calculated using the following formula: Papp = (dCr / dt) × Vr /(A × C0). Herein, dCr/dt is the cumulative concentration of the compound at the receiving end per unit time (µM/s); Vr is the volume of the solution at the receiving end (the volumes of the solution at the apical and basal sides are 0.075 mL and 0.250 mL, respectively); A is the relative surface area of the cell monolayer (0.0804 cm^2); C0 is the initial concentration (nM) of the test compound at the dosing end or the peak area ratio of the control compound. The efflux ratio was calculated using the following formula: ER = Papp(BA) / Papp(AB). The recovery rate was calculated using the following formula: % Recovery = 100 × [(Vr × Cr)+(Vd × Cd)] /(Vd × C0). Herein, C0 is the initial concentration of the test compound at the dosing end (nM) or the peak area ratio of the control compound; Vd is the volume at the dosing end (0.075 mL for the apical side and 0.250 mL for the basal side); Cd and Cr are the final concentrations (nM) of the test compound at the dosing end and the receiving end or the peak area ratios of the control compound, respectively.

T1 sequence (Q16620 32-822): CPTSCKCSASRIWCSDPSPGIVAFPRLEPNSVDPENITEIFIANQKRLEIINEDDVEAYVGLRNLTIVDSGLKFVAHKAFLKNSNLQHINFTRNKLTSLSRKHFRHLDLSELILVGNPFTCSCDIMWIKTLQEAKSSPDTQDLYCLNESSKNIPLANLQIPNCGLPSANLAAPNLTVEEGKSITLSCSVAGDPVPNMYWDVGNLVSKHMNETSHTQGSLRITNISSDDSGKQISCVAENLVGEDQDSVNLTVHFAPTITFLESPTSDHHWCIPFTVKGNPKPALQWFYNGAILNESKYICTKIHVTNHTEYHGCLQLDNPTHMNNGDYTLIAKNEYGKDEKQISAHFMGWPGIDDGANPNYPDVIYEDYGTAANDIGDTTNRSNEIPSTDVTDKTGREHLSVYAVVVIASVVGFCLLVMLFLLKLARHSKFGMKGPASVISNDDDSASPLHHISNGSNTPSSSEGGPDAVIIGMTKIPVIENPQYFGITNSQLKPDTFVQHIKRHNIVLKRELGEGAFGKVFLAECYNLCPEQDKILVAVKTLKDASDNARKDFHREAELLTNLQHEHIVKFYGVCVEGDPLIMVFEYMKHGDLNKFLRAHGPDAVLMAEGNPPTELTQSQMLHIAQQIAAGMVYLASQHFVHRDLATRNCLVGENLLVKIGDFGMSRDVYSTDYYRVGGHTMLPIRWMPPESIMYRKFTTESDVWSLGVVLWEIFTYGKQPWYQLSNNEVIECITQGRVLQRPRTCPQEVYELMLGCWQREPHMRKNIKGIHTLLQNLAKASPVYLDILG

SMILES	IC50 [1] [nM]	IC50 [2] [nM]	IC50 [5] [nM]	IC50 [6] [nM]	other results
CON=C1NCC2(CC2)COc2ccc(F)cc2CN2c3nc4c1cnn4cc3OC[C@H]2C(F)F [Compound 011]	3.4	1.7	–	–	–
CC1(C)COc2ncc(F)cc2CN2c3nc4c(cnn4cc3OC[C@H]2C(F)F)C(=S)N1 [Compound 004]	–	–	–	–	IC50 [3]: 1.3 nM; IC50 [4]: 2.4 nM
CC1(C)COc2ccc(F)cc2CN2c3nc4c(c(Br)nn4cc3OC[C@H]2C(F)F)C(=O)N1 [Compound 009]	2	0.8	7.8	7.3	–
CC1(C)COc2ccc(F)cc2CN2c3nc4c(c(C#CC5CC5)nn4cc3OC[C@H]2C(F)F)C(=O)N1 [Compound 020]	10	1.1	–	–	–
CC1(C)COc2ccc(F)cc2CN2c3nc4c(c(C#N)nn4cc3OC[C@H]2C(F)F)C(=O)N1 [Compound 010]	4.4	1.5	–	–	–
CC1(C)COc2ncc(F)cc2CN2c3nc4c(cc3OC[C@H]2C(F)F)ncn4C(=O)N1 [Compound 013]	–	–	0.3	1.2	efflux ratio at 2.5 h, 2 µM [7]: 0.77; Papp A→B at 2.5 h, 2 µM ([7]; 2 µM, 150 minutes, pH 7.40): 11.8 ×10⁻⁶ cm/s; Papp B→A at 2.5 h, 2 µM ([7]; 2 µM, 150 minutes, pH 7.40): 9.02 ×10⁻⁶ cm/s
O=C1NC2(CC2)COc2ccc(F)cc2CN2c3nc4c(cc3OC[C@H]2C(F)F)ncn41 [Compound 014]	0.7	0.4	0.2	5.3	–
O=C1NC2(CCC2)COc2ccc(F)cc2CN2c3nc4c1c(Br)nn4cc3OC[C@H]2C(F)F [Compound 021]	7	4	–	–	–
CC1(C)COc2ccc(F)cc2CN2c3nc4c(c(C5CC5)nn4cc3OC[C@H]2C(F)F)C(=O)N1 [Compound 017]	31.3	15.3	–	–	–
